Measured values reported in patent publication US20230233533A1, “COMPOSITIONS, METHODS OF TREATING AND PREVENTING FUNGAL INFECTIONS, AND METHODS OF INHIBITING PRP8 INTEIN EXPRESSION” (Health Research, Inc., priority 2020, published 2023).
In brackets after ≈: the same amount, converted by molar mass.

Columns and labels:
[1] = biological target: T1, Prp8 intein (Cryptococcus gattii, UniProt E6R027); test: Split Cys-free (Cf) GFP-Prp8 intein splicing assay; type: biochemical; settings: read-out: IC50 CfGFP-Prp8 (converted)
Procedure: (§1) The constructs for Cys-free (Cf) GFP-Prp8 and Cys-free nanoluciferase NnLuc-Prp8 were codon-optimized, synthesized, and cloned into the pET28a vector using the NcoI and XhoI sites by Gene Universal (Gene Universal, Newark Del.). […] The expression, refolding and purification of the CfGFP-Prp8 and NnLuc-Prp8 fusion proteins were carried out as described previously. […] Microbes. Infect.
Split GFP-Prp8 and CJGFP-Prp8 intein splicing assays—Using black and clear bottom 96-well plates, the DPNB-treated, -refolded and -concentrated GFP-Prp8 or CfGFP-Prp8 fusion protein (0.5 μM) was incubated with compounds or Dimethylsulfoxide (DMSO) solvent control for 30 min at 25° C. in a 100 μl intein splicing buffer (20 mM Bis-tris propane, 0.5 M NaCl, 0.5 M arginine, 1 mM EDTA, and 0.05% CHAPS). Then 100 μl 2×TCEP was added to a final concentration of 20 μM. The reactions were incubated at 25° C. overnight. […] Two readings were taken, one prior to addition of TCEP (I0) and one after incubation overnight with TCEP (If). Fluorescence/luminescence differences (ΔFluorescence or ΔLuminescence) were defined as If−I0 for each well. […] DMSO control served as 100% splicing activity.

[2] = biological target: T1, Prp8 intein; test: Split nanoluciferase NnLuc-Prp8 intein splicing assay; type: biochemical
Procedure: as §1
Split luciferase RLuc-Prp8 and NnLuc-Prp8 intein splicing assays—The split RLuc-Prp8 intein splicing assay was carried out and monitored using a Veritas luminometer, as described previously. […] Microbes. Infect. […] For NnLuc-Prp8 intein splicing assay, the NnLuc-prp8 is diluted in assay buffer (50 mM Tris, 0.1% BSA, 1 mM EDTA, pH 7.4) and 50 ul is added to each well in 96 well black plates. Test molecules or the solvent was added and incubated for 30 to 60 min. A splicing inducer TCEP (50 ul, 100 μM) is added and incubated for 24 h. Luciferase substrate (Furimazine, 25 ul 1:10,000 diluted) is added and luminescence is read using a luminescence reader. IC50 is calculated using Graphpad prism.

[3] = in vitro; type: cell-based, human; settings: human, CC50 A549
Procedure: Cytotoxicity—Cytotoxicity assays were carried out using human lung carcinoma cell line A549, as described (Chen et al., “Selective Inhibition of the West Nile Virus Methyltransferase by Nucleoside Analogs,” Antiviral Research 97(3):232-239 (2013), which is hereby incorporated by reference in its entirety). Briefly, the A549 cells (5×10^3) were incubated with/without compounds in a 96-well plate at 37° C. for 48 h. Cell viability was determined using the MTT assay (ATCC) as was described previously (Chen et al., “Selective Inhibition of the West Nile Virus Methyltransferase by Nucleoside Analogs,” Antiviral Research 97(3):232-239 (2013) and Brecher et al., “Identification and Characterization of Novel Broad-Spectrum Inhibitors of the Flavivirus Methyltransferase,” ACS Infectious Diseases 1(8):340-349 (2015), both of which are hereby incorporated by reference in their entirety). N=3.
Cytotoxicity—Cytotoxicity assays were carried out using human lung carcinoma cell line A549, as described. Chen et al., “Selective Inhibition of the West Nile Virus Methyltransferase by Nucleoside Analogs,” Antiviral Res. 97:232-9 (2013), which is hereby incorporated by reference in its entirety. Briefly, the A549 cells (5×10^3) were incubated with/without compounds in a 96-well plate at 37° C. for 48 h. Cell viability was determined using the MTT assay (ATCC) as was described previously (Chen et al., “Selective Inhibition of the West Nile Virus Methyltransferase by Nucleoside Analogs,” Antiviral Research 97(3):232-239 (2013) and Brecher et al., “Identification and Characterization of Novel Broad-Spectrum Inhibitors of the Flavivirus Methyltransferase,” ACS Infectious Diseases 1(8):340-349 (2015), both of which are hereby incorporated by reference in their entirety). N=3.

[4] = test system: C. neoformans H99 strain; test: Fungal susceptibility test, broth microdilution MIC; type: cell-based, Cryptococcus neoformans; settings: Cryptococcus neoformans, H99STRAIN; C. neoformans H99, microbroth dilution; read-out: MIC H99
Procedure: Fungal susceptibility test—The fungal susceptibility test was carried out with a compound concentration series as described. […] The broth microdilution method was used to determine the compound MIC values against C. neoformans.
Fungal susceptibility test—The fungal susceptibility test was carried out with a compound concentration series as described. […] Microbes. Infect. […] The broth microdilution method was used to determine the compound MIC values against C. neoformans.

T1 sequence (E6R027 entry or part of it): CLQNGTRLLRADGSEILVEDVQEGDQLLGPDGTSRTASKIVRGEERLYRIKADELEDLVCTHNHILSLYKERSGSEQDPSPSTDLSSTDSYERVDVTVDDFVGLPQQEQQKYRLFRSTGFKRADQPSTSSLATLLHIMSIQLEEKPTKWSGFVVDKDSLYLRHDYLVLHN

Compound	IC50 [1] [µM]	IC50 [2] [µM]	CC50 at 48 h [3] [µM]	MIC [4] [µM]
O=C(Nc1ccccc1F)c1nnsc1S(=O)(=O)c1ccc(Cl)cc1 [JMX872, 5-((4-Chlorophenyl)sulfonyl)-N-(2-fluorophenyl)-1,2,3-thiadiazole-4-carboxamide]	28.3	31.8	162	> 50
O=C(Nc1ccc(F)c(F)c1)c1nnsc1S(=O)(=O)c1ccc(Cl)cc1 [JMX876, 5-((4-Chlorophenyl)sulfonyl)-N-(3,4-difluorophenyl)-1,2,3-thiadiazole-4-carboxamide]	33.5	22	163	3.12 (≈ 1.3 µg/mL)
Cc1ccc(NC(=O)c2nnsc2S(=O)(=O)c2ccc(Cl)cc2)cc1 [JMX1033, 5-((4-chlorophenyl)sulfonyl)-N-(p-tolyl)-1,2,3-thiadiazole-4-carboxamide]	35.2	45.9	156	> 50
Cc1ccc(NC(=O)c2nnsc2[S+]([O-])c2ccc(Cl)cc2)cc1 (stereo not shown) [JMX1033-2]	47.3	3.8	74.6	> 50
O=C(Nc1ccc(Br)cc1)c1nnsc1S(=O)(=O)c1ccc(Cl)cc1 [JMX1034, N-(4-Bromophenyl)-5-((4-chlorophenyl)sulfonyl)-1,2,3-thiadiazole-4-carboxamide]	33.1	15.4	84.8	> 50
O=C(Nc1ccccc1)c1nnsc1S(=O)(=O)c1ccc(Cl)cc1 [JMX1035, 5-((4-Chlorophenyl)sulfonyl)-N-phenyl-1,2,3-thiadiazole-4-carboxamide]	38.4	33.9	84.1	6.25 (≈ 2.37 µg/mL)
O=C(Nc1cc(F)cc(Cl)c1)c1nnsc1S(=O)(=O)c1ccc(Cl)cc1 [JMX1036, N-(3-Chloro-5-fluorophenyl)-5-((4-chlorophenyl)sulfonyl)-1,2,3-thiadiazole-4-carboxamide]	32.9	21.4	70.9	1.56 (≈ 0.674 µg/mL)
O=C(Nc1ccc(F)c(Cl)c1)c1nnsc1S(=O)(=O)c1ccc(Cl)cc1 [JMX1037, N-(3-Chloro-4-fluorophenyl)-5-((4-chlorophenyl)sulfonyl)-1,2,3-thiadiazole-4-carboxamide]	31.4	14.1	63.2	25 (≈ 10.8 µg/mL)
O=C(Nc1cc(F)cc(F)c1)c1nnsc1S(=O)(=O)c1ccc(Cl)cc1 [JMX1038, 5-((4-Chlorophenyl)sulfonyl)-N-(3,5-difluorophenyl)-1,2,3-thiadiazole-4-carboxamide]	37.1	37.4	54.2	> 50
O=C(Nc1cc(F)cc(C(F)(F)F)c1)c1nnsc1S(=O)(=O)c1ccc(Cl)cc1 [JMX1040, 5-((4-chlorophenyl)sulfonyl)-N-(3-fluoro-5-(trifluoromethyl)phenyl)-1,2,3-thiadiazole-4-carboxamide]	32.8	20.6	56.3	3.12 (≈ 1.45 µg/mL)
O=C(Nc1cc(C(F)(F)F)cc(C(F)(F)F)c1)c1nnsc1S(=O)(=O)c1ccc(Cl)cc1 [JMX1041, N-(3,5-Bis(trifluoromethyl)phenyl)-5-((4-chlorophenyl)sulfonyl)-1,2,3-thiadiazole-4-carboxamide]	37.9	18.5	66.7	> 50
O=C(Nc1ccc(C(F)(F)F)cc1Cl)c1nnsc1S(=O)(=O)c1ccc(Cl)cc1 [JMX1042, N-(2-Chloro-4-(trifluoromethyl)phenyl)-5-((4-chlorophenyl)sulfonyl)-1,2,3-thiadiazole-4-carboxamide]	41.5	10.9	98.7	> 50
O=C(Nc1ccc([N+](=O)[O-])cc1F)c1nnsc1S(=O)(=O)c1ccc(Cl)cc1 [JMX1043, 5-((4-Chlorophenyl)sulfonyl)-N-(2-fluoro-4-nitrophenyl)-1,2,3-thiadiazole-4-carboxamide]	38.1	19.6	66.9	> 50
O=C(Nc1cc(F)c(F)c(F)c1)c1nnsc1S(=O)(=O)c1ccc(Cl)cc1 [JMX1044, 5-((4-Chlorophenyl)sulfonyl)-N-(3,4,5-trifluorophenyl)-1,2,3-thiadiazole-4-carboxamide]	31.8	16.3	47.8	> 50
O=C(Nc1cc(F)c(F)c(F)c1)c1nnsc1[S+]([O-])c1ccc(Cl)cc1 (stereo not shown) [JMX1044-2, 5-((4-Chlorophenyl)sulfinyl)-N-(3,4,5-trifluorophenyl)-1,2,3-thiadiazole-4-carboxamide]	26.9	4.4	47.5	> 50
O=C(Nc1c(F)cc(F)cc1F)c1nnsc1S(=O)(=O)c1ccc(Cl)cc1 [JMX1045, 5-((4-Chlorophenyl)sulfonyl)-N-(2,4,6-trifluorophenyl)-1,2,3-thiadiazole-4-carboxamide]	34.3	15.9	47.9	> 50
O=C(Nc1c(F)cc(F)cc1F)c1nnsc1[S+]([O-])c1ccc(Cl)cc1 (stereo not shown) [JMX1045-2, 5-((4-Chlorophenyl)sulfinyl)-N-(2,4,6-trifluorophenyl)-1,2,3-thiadiazole-4-carboxamide]	27.4	8.6	61	3.12 (≈ 1.3 µg/mL)
O=C(Nc1ccc(Cl)c(F)c1)c1nnsc1S(=O)(=O)c1ccc(Cl)cc1 [JMX1046, N-(4-Chloro-3-fluorophenyl)-5-((4-chlorophenyl)sulfonyl)-1,2,3-thiadiazole-4-carboxamide]	34.1	20.1	145	> 50
O=C(Nc1ccc(Cl)c(F)c1)c1nnsc1[S+]([O-])c1ccc(Cl)cc1 (stereo not shown) [JMX1046-2, N-(4-Chloro-3-fluorophenyl)-5-((4-chlorophenyl)sulfinyl)-1,2,3-thiadiazole-4-carboxamide]	32.2	7.5	149	1.56 (≈ 0.649 µg/mL)
O=C(Nc1ccc(F)cc1)c1nnsc1S(=O)(=O)c1ccc(Cl)cc1Cl [JMX1059, 5-((2,4-Dichlorophenyl)sulfonyl)-N-(4-fluorophenyl)-1,2,3-thiadiazole-4-carboxamide]	31.9	20.9	68.1	12.5 (≈ 5.4 µg/mL)
O=C(Nc1ccc(F)cc1)c1nnsc1S(=O)(=O)c1ccc(F)c(F)c1 [JMX1060, 5-((3,4-Difluorophenyl)sulfonyl)-N-(4-fluorophenyl)-1,2,3-thiadiazole-4-carboxamide]	32.8	23.5	61.1	50 (≈ 20 µg/mL)
O=C(Nc1ccc(F)cc1)c1nnsc1S(=O)(=O)c1ccc(F)cc1 [JMX1061, N-(4-Fluorophenyl)-5-((4-fluorophenyl)sulfonyl)-1,2,3-thiadiazole-4-carboxamide]	51.3	23.7	71.7	> 50
